Bridges are numbered along the chain shown (N, C = ends). Roman numbers before positions name the chains, in order.
How the values were obtained:
CD thermal unfolding = format: physicochemical; conditions: apo, 10 μM, 10 mM HEPES pH 7.0, CD 222 nm
Description: 2 (A) CD spectra of 0.1 μM and (B) 10 μM KH2-20X and MB1-2 trimers in the absence (apo; KH2-20X, orange; MB1-2, blue) and presence (holo; KH2-20X + TbCl3, red; MB1-2 + TbCl3, turquoise) of 1.0 equiv of TbCl3, recorded at 293 K. (C) CD thermal unfolding profiles of 10 μM trimers monitoring the molar ellipticity at 222 nm: apo MB1-2 (blue), Tb(MB1-2)3 (turquoise), apo KH2-20X (orange), and Tb(KH2-20X) (red). Solid lines indicate forward heating, and dotted lines indicate reverse cooling. All experiments were conducted in HEPES buffer at pH 7.0, with buffer concentrations adjusted to match peptide concentration (0.1 and 10.0 mM for 0.1 and 10.0 μM peptide, respectively). […]
10 µM peptide in 10 mM HEPES, 0.1 mM TbCl₃ into 1 µM peptide in 1 mM HEPES, and 0.01 mM TbCl₃ into 0.1 µM peptide in 0.1 mM HEPES (all at pH 7.0). […] The observed ellipticity was then converted into molar ellipticity, where the helical content was calculated as the percentage folded, based on the theoretical maximum ellipticity at 222 nm as reported by Scholtz et al.9 Thermal unfolding data was recorded by monitoring the ellipticity at 222 nm of a 10 μM trimer concentration of MB1-2 and KH2-20X solution in 10 mM HEPES buffer (pH 7.0) in the absence and presence of 10 μM TbCl3, using a Jasco Peltier Type MPTC-513 temperature controller ramping from 20 °C to 85 °C in 0.1°C increments, heating at 1 °C/min. […]

[1] = Kinetics of Tb(III) binding and coiled coil folding (CD 222 nm / Tb emission 545 nm); format: physicochemical; conditions: 0.1, 1.0 and 10 μM, 10 mM HEPES pH 7.0, 1.0 equiv TbCl3

I: Ac-GIAAIEQKIAANEWKDAAIEQKIAAIEQKIAAIEQKG-NH2 / II: Ac-GIAAIEQKIAANEWKDAAIEQKIAAIEQKIAAIEQKG-NH2 / III: Ac-GIAAIEQKIAANEWKDAAIEQKIAAIEQKIAAIEQKG-NH2 (amide I:15-II:20, I:20-III:15, II:15-III:20) [KH2-20X]
folding over the temperature range 20-85 °C (CD thermal unfolding): remain well-folded throughout the entire temperature range | rate of Tb(III) binding (sensitized emission 545 nm) [1]: rapid across all tested concentrations

Reference: publication PMC12636026 (Journal of the American Chemical Society, 2025)
